Patent publication US8637512B2, “Formulations and method of treatment” (Glaxo Group Limited, priority 2002, dated 2014)

How the values were obtained:
[1] = cited from earlier work
[2] = Regional absorption study in the gastrointestinal tract; assay type: in vivo
Description: Until recently, it was not known where, in the gastrointestinal tract, lamotrigine is absorbed. In carrying out a regional absorption study it has recently been discovered that the extent of absorption of lamotrigine is consistent when the drug is delivered to any point in the gastrointestinal tract between the stomach and the ascending colon. The extent of absorption is also equivalent whether the drug is delivered as a solid or as a solution.

[3] = stomach versus lower regions of the gastrointestinal tract; cited from earlier work

extent of absorption, solid versus solution ([2]; drug delivered as a solid or as a solution): equivalent | extent of absorption by site of delivery ([2]; drug delivered to any point in the gastrointestinal tract between the stomach and the ascending colon): consistent
Structure (SMILES): Nc1nnc(-c2cccc(Cl)c2Cl)c(N)n1 [Lamotrigine, 3,5-diamino-6-(2,3-dichlorophenyl)-1,2,4-triazine]
absorption after oral administration [1]: rapidly and completely absorbed | absolute bioavailability ([1]; oral administration): about 98% | effect of food on absolute bioavailability ([1]; oral administration): not affected by food | first pass metabolism ([1]; oral administration): negligible | solubility in the stomach compared to lower regions of the gastrointestinal tract [3]: higher
